Assay [1] concerns the target T1, purified and unphosphorylated T315I Abl kinase domain (ABL_T315I_0P) (Mus musculus, UniProt P00520, T315I).
T1 construct: The c-Abl T3151 KD (kinase domain) was purified as follows; Met-Ser-Leu (vector-derived residues) (N); made in house; host or cells: E. coli BL21(DE3) strains (Codon+RIL, or pSA0145 for the lambda phosphatase co-expression plasmid)
T1 sequence (P00520 242-493 T315I limits assumed): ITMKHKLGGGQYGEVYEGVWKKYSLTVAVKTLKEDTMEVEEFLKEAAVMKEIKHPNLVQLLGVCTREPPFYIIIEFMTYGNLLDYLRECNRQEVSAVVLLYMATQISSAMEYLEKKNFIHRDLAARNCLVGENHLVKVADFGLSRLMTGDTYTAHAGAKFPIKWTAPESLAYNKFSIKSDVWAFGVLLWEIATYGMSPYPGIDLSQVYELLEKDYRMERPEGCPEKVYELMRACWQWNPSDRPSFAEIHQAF
Description: c-Abl T315I (unphosphorylated kinase domain) pyruvate kinase/lactate dehydrogenase coupled enzyme assay. It is filed as biochemical. The note with it: 10 μM ATP.

The target of the next assay is T2, ABL P210WT BAF3 cells (Homo sapiens, UniProt P00519).
T2 construct: ABL P210WT BAF3; fused on or other part: P11274 (Breakpoint cluster region protein)
The assay is described as follows: 96-well XTT cell survival assay, BaF3 ABL P210WT. The assay is classed as cell-based. The following applies: ABL P210 WT, 72 hours, read-out: CELL BIO ABL P210WT BAF3 XTT (IC50). Put shortly:
(§1)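 Ba/F3 cells in RPMI 1640 with 10% FBS (IL-3 medium for maintenance) were seeded at 5000-8000 cells/well and exposed to compound dilutions in duplicate for 72 h at 37° C. Viability read by XTT/PMS, absorbance 405 nm minus 650 nm after 2-6 h.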
In general terms: Formazan colour is commonly taken as a measure of viable cells.

Another assay deals with T3, ABL T315I BAF3 cells (Homo sapiens, UniProt P00519, T315I, cells depend on it).
T3 construct: ABL T315I BAF3; fused on or other part: P11274 (Breakpoint cluster region protein)
Description: 96-well XTT cell survival assay, BaF3 ABL T315I. It is filed as cell-based. The following applies: 72 hours, read-out: CELL BIO ABL T315I BAF3 XTT (IC50). The procedure, abridged:
as §1

The record followed here is US8158647B2, “Substituted pyrrolopyridines and pyrazolopyridines as kinase modulators” (SGX Pharmaceuticals, Inc., priority 2007, dated 2012).

For the molecule `CN(C)C(=O)c1cncc(-c2cnc3[nH]cc(-c4cccc(F)c4F)c3c2Cl)n1`, in assay [1], the “ABL_T315I_0P (IC50)” value is “D (<0.01 μM)”. In addition, the GI50 on ABL P210WT BAF3 cells and at ABL T315I BAF3 cells was 100 to 1000 nM in each case.
In the case of `CN(C)C(=O)c1cc(-c2cnc3[nH]cc(-c4cc(F)ccc4F)c3c2Cl)cnc1N` [2-Amino-5-[4-chloro-3-(2,5-difluoro-phenyl)-1H-pyrrolo[2,3-b]pyridin-5-yl]-N,N-dimethyl-nicotinamide], the “ABL_T315I_0P (IC50)” value in assay [1] is reported as “D (<0.01 μM)”. Further, the results for the GI50 on ABL P210WT BAF3 cells and at ABL T315I BAF3 cells were 10 to 100 nM and 100 to 1000 nM, respectively.
For the molecule `CCN(C)C(=O)c1cc(-c2cnc3[nH]cc(-c4cc(F)ccc4F)c3c2Cl)cnc1N` [2-Amino-5-[4-chloro-3-(2,5-difluoro-phenyl)-1H-pyrrolo[2,3-b]pyridin-5-yl]-N-ethyl-N-methyl-nicotinamide], the “ABL_T315I_0P (IC50)” value in assay [1] is given as “D (<0.01 μM)”. The GI50 at ABL P210WT BAF3 cells and at ABL T315I BAF3 cells was 100 to 1000 nM each time.
In the case of `COc1ccccc1-c1c[nH]c2ncc(-c3cncc(C(=O)C(=O)N(C)C)c3)c(OC)c12` [2-{5-[4-Methoxy-3-(2-methoxy-phenyl)-1H-pyrrolo[2,3-b]pyridin-5-yl]-pyridin-3-yl}-N,N-dimethyl-2-oxo-acetamide], the “ABL_T315I_0P (IC50)” value in assay [1] was “D (<0.01 μM)”. Moreover, the GI50 at ABL P210WT BAF3 cells lay in the range of 100 to 1000 nM; on ABL T315I BAF3 cells, 10 to 100 nM.
Taken in the same sequence, the figures for `CN(C)C(=O)c1cc(-c2cnc3[nH]cc(-c4cccc(F)c4F)c3c2Cl)cnc1N` [2-Amino-5-[4-chloro-3-(2,3-difluoro-phenyl)-1H-pyrrolo[2,3-b]pyridin-5-yl]-N,N-dimethyl-nicotinamide] were “D (<0.01 μM)”, 100 to 1000 nM and 100 to 1000 nM.
Taken in the same sequence, the figures for `CNc1c(Br)cnc2[nH]cc(-c3ccccc3OC)c12` [[5-Bromo-3-(2-methoxy-phenyl)-1H-pyrrolo[2,3-b]pyridin-4-yl]-methyl-amine] were “C (0.1-0.01 μM)”, more than 1000 nM and more than 1000 nM.
Taken in the same sequence, the figures for `COc1ccccc1-c1c[nH]c2ncc(-c3cncc(C(O)C(=O)N(C)C)c3)c(O)c12` (stereo not drawn) [2-Hydroxy-2-{5-[4-hydroxy-3-(2-methoxy-phenyl)-1H-pyrrolo[2,3-b]pyridin-5-yl]-pyridin-3-yl}-N,N-dimethyl-acetamide] were “C (0.1-0.01 μM)”, more than 1000 nM and more than 1000 nM.
Regarding `COc1ccncc1-c1c[nH]c2ncc(-c3cncc(C(O)C(=O)N(C)C)c3)c(Cl)c12` (stereo not drawn) [2-{5-[4-Chloro-3-(4-methoxy-pyridin-3-yl)-1H-pyrrolo[2,3-b]pyridin-5-yl]-pyridin-3-yl}-2-hydroxy-N,N-dimethyl-acetamide], the “ABL_T315I_0P (IC50)” value in assay [1] is “D (<0.01 μM)”. In addition, the GI50 on ABL P210WT BAF3 cells and at ABL T315I BAF3 cells was 100 to 1000 nM in each case.
In the case of `CN(C)C(=O)c1cncc(-c2cnc3[nH]cc(-c4ccccc4F)c3c2Cl)c1`, the “ABL_T315I_0P (IC50)” value in assay [1] was “D (<0.01 μM)”. Further, the GI50 on ABL P210WT BAF3 cells and on ABL T315I BAF3 cells was 100 to 1000 nM throughout.
As to `COc1ccccc1-c1c[nH]c2ncc(-c3cccc(C(=O)N(C)C)c3)c(C)c12` [3-[3-(2-Methoxy-phenyl)-4-methyl-1H-pyrrolo[2,3-b]pyridin-5-yl]-N,N-dimethyl-benzamide], in assay [1], the “ABL_T315I_0P (IC50)” value is on record as “D (<0.01 μM)”. Moreover, the GI50 at ABL P210WT BAF3 cells and at ABL T315I BAF3 cells was 10 to 100 nM in each case.
Take `CN(C)C(=O)c1cncc(-c2cnc3[nH]cc(-c4ccc(F)cc4)c3c2Cl)c1`: the “ABL_T315I_0P (IC50)” value in assay [1] was “C (0.1-0.01 μM)”. The figures for the GI50 at ABL P210WT BAF3 cells and on ABL T315I BAF3 cells were 100 to 1000 nM and more than 1000 nM, respectively.
For `COc1cc(F)c(F)cc1-c1c[nH]c2ncc(-c3cnc(N)c(C(=O)N(C)C)c3)c(Cl)c12` [2-Amino-5-[4-chloro-3-(4,5-difluoro-2-methoxy-phenyl)-1H-pyrrolo[2,3-b]pyridin-5-yl]-N,N-dimethyl-nicotinamide], the “ABL_T315I_0P (IC50)” value in assay [1] is on record as “D (<0.01 μM)”. For the same molecule, the GI50 at ABL P210WT BAF3 cells and at ABL T315I BAF3 cells was 10 to 100 nM throughout.
Consider `CCc1c(-c2cncc(C(O)C(=O)N(C)C)c2)cnc2[nH]cc(-c3ccccc3OC)c12` (stereo not drawn) [2-{5-[4-Ethyl-3-(2-methoxy-phenyl)-1H-pyrrolo[2,3-b]pyridin-5-yl]-pyridin-3-yl}-2-hydroxy-N,N-dimethyl-acetamide], for which, in assay [1], the “ABL_T315I_0P (IC50)” value is on record as “D (<0.01 μM)”. Also, the GI50 on ABL P210WT BAF3 cells and on ABL T315I BAF3 cells was 100 to 1000 nM throughout.
With `CN(C)C(=O)c1cncc(-c2cnc3[nH]cc(-c4ccc(F)cc4F)c3c2Cl)c1` [5-[4-Chloro-3-(2,4-difluoro-phenyl)-1H-pyrrolo[2,3-b]pyridin-5-yl]-N,N-dimethyl-nicotinamide], the “ABL_T315I_0P (IC50)” value in assay [1] is on record as “C (0.1-0.01 μM)”. In addition, the GI50 at ABL P210WT BAF3 cells and at ABL T315I BAF3 cells was more than 1000 nM each time.
As for `COc1ccccc1-c1c[nH]c2ncc(Br)c(N(C)CCO)c12` [2-{[5-Bromo-3-(2-methoxy-phenyl)-1H-pyrrolo[2,3-b]pyridin-4-yl]-methyl-amino}-ethanol], the “ABL_T315I_0P (IC50)” value in assay [1] is “C (0.1-0.01 μM)”. For the same molecule, the GI50 at ABL P210WT BAF3 cells and at ABL T315I BAF3 cells was more than 1000 nM throughout.
Take `COc1ccccc1-c1c[nH]c2ncc(-c3cncc(CC(=O)N(C)C)c3)c(Cl)c12` [2-{5-[4-Chloro-3-(2-methoxy-phenyl)-1H-pyrrolo[2,3-b]pyridin-5-yl]-pyridin-3-yl}-N,N-dimethyl-acetamide]: in assay [1], the “ABL_T315I_0P (IC50)” value is “D (<0.01 μM)”. Further, the GI50 on ABL P210WT BAF3 cells and at ABL T315I BAF3 cells was 10 to 100 nM in each case.
For the molecule `Nc1ncc(-c2cnc3[nH]cc(-c4cccc(F)c4)c3c2Cl)cc1C(=O)N1CCCC1CO` (stereo not drawn) [{2-Amino-5-[4-chloro-3-(3-fluoro-phenyl)-1H-pyrrolo[2,3-b]pyridin-5-yl]-pyridin-3-yl}-(2-hydroxymethyl-pyrrolidin-1-yl)-methanone], the “ABL_T315I_0P (IC50)” value in assay [1] is given as “D (<0.01 μM)”. Moreover, the GI50 on ABL P210WT BAF3 cells and on ABL T315I BAF3 cells was 100 to 1000 nM in each case.
As for `NC(=O)C(O)c1cncc(-c2cnc3[nH]cc(-c4ccccc4F)c3c2Cl)c1` (stereo not drawn), in assay [1], the “ABL_T315I_0P (IC50)” value is “D (<0.01 μM)”. Also, the GI50 at ABL P210WT BAF3 cells and on ABL T315I BAF3 cells was more than 1000 nM each time.
Regarding `COc1cc(Cl)ccc1-c1c[nH]c2ncc(-c3cnc(N)c(C(=O)N(C)C)c3)c(Cl)c12` [2-Amino-5-[4-chloro-3-(4-chloro-2-methoxy-phenyl)-1H-pyrrolo[2,3-b]pyridin-5-yl]-N,N-dimethyl-nicotinamide], in assay [1], the “ABL_T315I_0P (IC50)” value is listed as “D (<0.01 μM)”. For the same molecule, the GI50 at ABL P210WT BAF3 cells and on ABL T315I BAF3 cells was 10 to 100 nM in each case.
For the molecule `COc1ccccc1-c1c[nH]c2ncc(Br)c(N)c12` [5-Bromo-3-(2-methoxy-phenyl)-1H-pyrrolo[2,3-b]pyridin-4-ylamine], the “ABL_T315I_0P (IC50)” value in assay [1] was “C (0.1-0.01 μM)”. Also, the GI50 at ABL P210WT BAF3 cells and at ABL T315I BAF3 cells was more than 1000 nM in each case.
For `COc1ncccc1-c1c[nH]c2ncc(-c3cnc(N)c(C(=O)N(C)C)c3)c(Cl)c12` [2-Amino-5-[4-chloro-3-(2-methoxy-pyridin-3-yl)-1H-pyrrolo[2,3-b]pyridin-5-yl]-N,N-dimethyl-nicotinamide], the “ABL_T315I_0P (IC50)” value in assay [1] is “D (<0.01 μM)”. The GI50 on ABL P210WT BAF3 cells and on ABL T315I BAF3 cells was 10 to 100 nM each time.
Consider `OC(c1cncc(-c2cnc3[nH]cc(-c4cccc(F)c4F)c3c2Cl)c1)C1CC1` (stereo not drawn) [{5-[4-Chloro-3-(2,3-difluoro-phenyl)-1H-pyrrolo[2,3-b]pyridin-5-yl]-pyridin-3-yl}-cyclopropyl-methanol], for which, in assay [1], the “ABL_T315I_0P (IC50)” value is reported as “D (<0.01 μM)”. The GI50 at ABL P210WT BAF3 cells and on ABL T315I BAF3 cells was 100 to 1000 nM each time.
As to `COc1cnccc1-c1c[nH]c2ncc(-c3cncc(C(O)C(=O)N(C)C)c3)c(Cl)c12` (stereo not drawn) [2-{5-[4-Chloro-3-(3-methoxy-pyridin-4-yl)-1H-pyrrolo[2,3-b]pyridin-5-yl]-pyridin-3-yl}-2-hydroxy-N,N-dimethyl-acetamide], the “ABL_T315I_0P (IC50)” value in assay [1] is “D (<0.01 μM)”. Moreover, the GI50 at ABL P210WT BAF3 cells and at ABL T315I BAF3 cells was more than 1000 nM each time.
With `CSc1ccccc1-c1c[nH]c2ncc(-c3cncc(C(=O)N(C)C)c3)c(Cl)c12` [5-[4-Chloro-3-(2-methylsulfanyl-phenyl)-1H-pyrrolo[2,3-b]pyridin-5-yl]-N,N-dimethyl-nicotinamide], the “ABL_T315I_0P (IC50)” value in assay [1] is “D (<0.01 μM)”. The GI50 on ABL P210WT BAF3 cells and on ABL T315I BAF3 cells was more than 1000 nM each time.
Consider `COc1ccccc1-c1c[nH]c2ncc(-c3cnc(N)c(C(=O)N(C)C)c3)c(Cl)c12` [2-Amino-5-[4-chloro-3-(2-methoxy-phenyl)-1H-pyrrolo[2,3-b]pyridin-5-yl]-N,N-dimethyl-nicotinamide], for which the “ABL_T315I_0P (IC50)” value in assay [1] was “D (<0.01 μM)”. For the same molecule, the GI50 on ABL P210WT BAF3 cells and at ABL T315I BAF3 cells was less than 10 nM throughout.
`CN(C)C(=O)c1nc(-c2cnc3[nH]cc(-c4ccc(F)cc4)c3c2Cl)cnc1N` [3-amino-6-[4-chloro-3-(4-fluoro-phenyl)-1H-pyrrolo[2,3-b]pyridin-5-yl]-pyrazine-2-carboxylic acid dimethylamide]: the “ABL_T315I_0P (IC50)” value in assay [1] is “C (0.1-0.01 μM)”. Moreover, the GI50 at ABL P210WT BAF3 cells and at ABL T315I BAF3 cells was 100 to 1000 nM throughout.
